“And” between values parts separate entries of the source, which are not always exact repeats. Identical values can stand only once. Like-named read-outs stand apart in the source and are kept apart here.
How the values were obtained:
[1] = molecular target: T1, chymotrypsin-like activity of the purified rabbit 20S proteasome (Oryctolagus cuniculus, UniProt G1T4Q9); test: 20S proteasome inhibition assay, fluorogenic substrate Suc-Leu-Leu-Val-Tyr-AMC; assay type: biochemical;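 further: enzyme and 20 µM substrate incubated 1 h at 37 °C in Tris-HCl buffer pH 7.6, fluorogenic read-out, inhibition calculated against vehicle control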
T1 sequence (G1T4Q9 1-263): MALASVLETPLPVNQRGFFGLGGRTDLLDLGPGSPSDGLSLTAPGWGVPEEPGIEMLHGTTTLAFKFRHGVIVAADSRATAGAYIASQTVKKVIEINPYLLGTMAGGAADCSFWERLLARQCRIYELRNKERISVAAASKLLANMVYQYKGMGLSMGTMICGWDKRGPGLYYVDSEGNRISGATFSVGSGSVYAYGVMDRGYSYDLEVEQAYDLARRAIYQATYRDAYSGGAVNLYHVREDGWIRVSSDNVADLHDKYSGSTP
Procedure: 20S Proteasome Inhibition Assay
In our work, we used chymotrypsin-like substrate Suc-Leu-Leu-Val-Tyr-AMC to test the proteasome inhibition activity of the synthesized compounds.
The assay was conducted by using a fluorogenic peptide as substrate to test synthesized compounds for inhibitory activity against the chymotrypsin-like activity of the purified rabbit 20S proteasome. Briefly, 70 ng of purified 20S proteasome was incubated with 20 μM Suc-Leu-Leu-Val-Tyr-AMC for 1 hour at 37° C. in 100 μl of assay buffer (50 mM Tris-HCl, pH 7.6) with or without inhibitors. […] The inhibitory activity of the compounds was calculated based on vehicle control.

[2] = tested on: human tumor cell lines (breast, pancreatic and ovarian); test: Selective inhibition of human tumor cell lines over normal cells; assay type: cell-based; settings: three human tumor cell lines (breast, pancreatic, ovarian) over normal cells
CT-L = molecular target: T2, CT-L (Homo sapiens, UniProt P28074); test: Inhibition of CT-L in cell culture; assay type: cell-based; settings: read-out: IC50 (μM)* In Cell culture against CT-L
T2 construct: endogenous in cells
T2 sequence (P28074 60-263): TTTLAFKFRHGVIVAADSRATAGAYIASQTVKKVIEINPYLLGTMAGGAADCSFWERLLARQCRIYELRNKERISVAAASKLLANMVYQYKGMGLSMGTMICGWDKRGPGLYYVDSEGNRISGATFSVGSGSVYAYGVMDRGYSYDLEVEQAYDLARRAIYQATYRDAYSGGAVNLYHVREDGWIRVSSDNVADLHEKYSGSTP

[3] = 30 μM, runs M-1096, M-1098, M-1099
[4] = individual determinations (runs M-1096, M-1098, M-1099, AK or dated), read-out: Chymotrypsin-like Activity IC50
[5] = mean of the individual determinations, read-out: Chymotrypsin-like Activity IC50 (μM), mean ± spread (n)

In the case of `O=C1C(Cl)=C(Nc2ccc(S(=O)(=O)Nc3ccccn3)cc2)C(=O)c2ccccc21` [PI-083, reference compound], the “Chymotrypsin-like Activity Inhibition at 30 μM” value [1, 3] is reported as 86% and 83%, the inhibition at 30 µM [1, 3] is reported as 87% and the IC50 [1, 4] is reported as 2.1 µM and 1.4 µM and 2.5 µM and 0.9 µM. The IC50 [1, 5] was 1.73 µM, the “selective inhibition of tumor cell lines over normal cells” value [2] was “selective inhibition” and the IC50 (CT-L) was 4.3 µM and 3.7 µM.

`O=S(=O)(Nc1cc(Sc2ncn[nH]2)c(O)c2ccccc12)c1cccs1` [YG1-159-2, N-(3-(1H-1,2,4-triazol-5-ylthio)-4-hydroxynaphthalen-1-yl)thiophene-2-sulfonamide] was tested, and the “proteasome inhibitory activity, SAR statement in words” value ([1]; chymotrypsin-like activity, compared with lead or analogue) was “comparable inhibition potency”, the IC50 [1, 4] was 1.4 µM and 6.55 µM and 7.4 µM and 5.6 µM and 6.6 µM and 0.85 µM and 1.12 µM and the IC50 [1, 5] was 4.22 µM. The IC50 (CT-L) was 4.8 µM and 5.1 µM.

Reference: patent publication US8466157B2, “Proteasome inhibitors having chymotrypsin-like activity” (University of South Florida, priority 2009, dated 2013)
